What is called minimal effective dose is the lowest level tested that produced the effect sought.

The source of these data is patent US4301169A, “Novel imidazole compound and anti-depressing agent containing the same” (Eisai Co., Ltd., priority 1978, dated 1981).

Data set [1] relates to reserpine-induced hypothermia. As to the kind of experiment: Anti-reserpine activity (antagonism against reserpine-induced hypothermia). Format: in vivo, male ddy mice. Conditions: Mus musculus; minimum dose necessary for increasing body temperature of reserpine-treated mice significantly (P < 0.05) over control; reserpine 2.5 mg/kg i.p., test compound (hydrochloride) oral 18 hours later. As to the method: (§1) Each test compound is used in the form of a hydrochloride.
(1) Anti-reserpine activity:
The antagonism against the reserpine-induced hypothermia is examined according to the method of B. M. Askew (Life Science, 4, 725-730, 1963).
Male ddy mice having a body weight of 19 to 25 g are used as the test animal. Reserpine is injected intraperitoneally in dose of 2.5 mg/kg, and 18 hours after the injection, the test compound is orally administered and the change of the body temperature with the lapse of time is examined by using a thermistor type thermometer (Model MGA III manufactured by Shibaura Denshi).
The effect of each compound is examined with 2 to 4 dose levels.
Each of the test compound is used in the form of an aqueous solution. The control animal is treated with physiological saline solution. Four animals having a body temperature of 24° to 25° C., 18 hours after the injection of reserpine, are used for each dose. The experiment is carried out in a room at 23° to 25° C.
^(a) The minimum dose necessary for increasing the body temperature o

Data set [2] concerns spontaneous motility. Put plainly: Influence on spontaneous motility. Format: in vivo, male ddy mice. Conditions: Mus musculus, 1 h; 40 mg/kg oral, hydrochloride, 60 minutes before start; 60 minutes measurement; * = significant at P <0.05; read-out: Relative Spontaneous Motility (%) to Control. The protocol:
as §1
(2) Influence on spontaneous motility:
The spontaneous motility is examined according to the method of T. H. Sevensson (Psychopharmacologia, 14, 157, 1969). Three ddy male mice having a body weight of 20 to 25 g are put in a black observation box of an acrylic resin as one group, and the amount of the spontaneous motility during a period of 60 minutes is measured and recorded by using Animex (manufactured by Farrod Co., Sweden).
Sixty minutes before the start of the measurement of the spontaneous motility, the test compound is orally administered in a dose of 40 mg/kg. The control animal is treated with physiological saline solution. Five groups (15 mice) are used for each dose level.
*Significant increase of the spontaneous motility at P <0.05

Data set [3] in a line: Acute toxicity (lethal action). As to conditions: mouse, in vivo, mice, hydrochloride, read-out: Acute Toxicity (Lethal Ratio %). As to the method: as §1
The test compound is administered in a dose of 100 or 400 mg/kg to mice for examining the lethal action. Five mice are used for each dose level. The lethal ratio is measured 24 hours after oral administration.

Data set [4] concerns spontaneous motility. As to the kind of experiment: Influence on spontaneous motility. Format: in vivo, male ddy mice. As to conditions: Mus musculus, po, 1 h; 10 mg/Kg P.O. (footnote b), hydrochloride; * = significant at P <0.05; read-out: Relative Spontaneous Motility (%) to Control.
The test system of data set [5] is dopamine and its metabolites in the mouse brain. Put plainly: Effect on the level of dopamine and its metabolites in the mouse brain. The class given is in vivo. The source says:
Furthermore, we investigated the effect of the compound of the present invention (compound H and I) on the level of dopamine and its metabolites in the mouse brain. […] This means that the compounds of the invention antagonize against the reserpine-induced depression in a way completely different from the known tricyclic antidepressant.

Like-named read-outs stand apart in the source and are kept apart here.

Take `Cc1nccn1-c1ccc(N)c(C(F)(F)F)c1` [E, 1-(3-Trifluoromethyl-4-aminophenyl)-2-methylimidazole]: in data set [1], the minimal effective dose is 5 mg/kg. Also, the response vs control in vivo at 40 mg/kg in data set [2] was found to be 70 ± 8%. Also, the mortality at 24 h in data set [3] (100 mg/Kg oral) and in data set [3] (400 mg/Kg oral) was 0% throughout.

As for `CC(C)c1nccn1-c1ccc(NC(=O)c2ccc(Cl)cc2)cc1` [P, 1-[4-(4-Chlorobenzoylamino)phenyl]-2-isopropylimidazole], the minimal effective dose in data set [1] is 10 mg/kg. Moreover, in data set [2], the response vs control in vivo at 40 mg/kg came out at 92 ± 14%. The mortality at 24 h in data set [3] (100 mg/Kg oral) and in data set [3] (400 mg/Kg oral) was 0% each time.

As for `Cc1nccn1-c1ccc(N(C)C)cc1` [B, 1-(4-Dimethylaminophenyl)-2-methylimidazole], the minimal effective dose in data set [1] came out at 2.5 mg/kg. The response vs control in vivo at 40 mg/kg in data set [2] was 526 ± 24%. The mortality at 24 h in data set [3] (100 mg/Kg oral) was 0%; in data set [3] (400 mg/Kg oral) it was 80%.

Turning to `Cc1nccn1-c1ccc(N)cc1` [K, 1-(4-Aminophenyl)-2-methylimidazole], the minimal effective dose in data set [1] was 1.25 mg/kg. Besides, the mortality at 24 h in data set [3] (100 mg/Kg oral) is 40%; in data set [3] (400 mg/Kg oral), 80%. The response vs control in vivo at 10 mg/kg in data set [4] is 350 ± 31%.

On to `CCCCNc1ccc(-n2ccnc2C)cc1` [J, 1-(4-n-Butylaminophenyl)-2-methylimidazole], for which the minimal effective dose in data set [1] was 5 mg/kg. Also, the response vs control in vivo at 40 mg/kg in data set [2] is 543 ± 57%. Further, the mortality at 24 h is 0% in data set [3] (100 mg/Kg oral) and 60% in data set [3] (400 mg/Kg oral).

`Cc1nccn1-c1cccc(N)c1` [H, 1-(3-Aminophenyl)-2-methylimidazole]: in data set [1], the minimal effective dose was determined as 2.5 mg/kg. In data set [2], the response vs control in vivo at 40 mg/kg is 83 ± 3%. In addition, the mortality at 24 h in data set [3] (100 mg/Kg oral) and in data set [3] (400 mg/Kg oral) was 0% each time. Also, the “dopamine turnover in the brain” value in data set [5] is “reduce dopamine turnover in the brain”.

The molecule `CCc1nccn1-c1ccc(Cl)c(Cl)c1` [C, 1-(3,4-Dichlorophenyl)-2-ethylimidazole] showed a minimal effective dose in data set [1] of 1.25 to 2.5 mg/kg. The response vs control in vivo at 40 mg/kg in data set [2] was found to be 99 ± 7%. Moreover, the mortality at 24 h amounted to 0% in data set [3] (100 mg/Kg oral) and 20% in data set [3] (400 mg/Kg oral).

Consider `Cc1ccc(-n2ccnc2C)cc1C` [A, 1-(3,4-Dimethylphenyl)-2-methylimidazole], for which, in data set [1], the minimal effective dose worked out at 2.5 mg/kg. Further, the response vs control in vivo at 40 mg/kg in data set [2] is 82 ± 6%. The values for the mortality at 24 h in data set [3] (100 mg/Kg oral) and in data set [3] (400 mg/Kg oral) were 0% and 100%, respectively.

As for `Cc1nccn1-c1ccc(NC(=O)c2ccc(F)cc2)cc1` [M, 1-[4-(4-Fluorobenzoylamino)phenyl]-2-methylimidazole], in data set [1], the minimal effective dose is 10 mg/kg. The response vs control in vivo at 40 mg/kg in data set [2] was found to be 229 ± 30%. Also, the mortality at 24 h in data set [3] (100 mg/Kg oral) and in data set [3] (400 mg/Kg oral) was 0% in each case.

In turn, `Cc1cn(-c2ccc(N)cc2)c(C)n1` [D, 1-(4-Aminophenyl)-2,4-dimethylimidazole] registered a minimal effective dose in data set [1] of 5 mg/kg. Further, the response vs control in vivo at 40 mg/kg in data set [2] came to 473 ± 48%. Moreover, the values for the mortality at 24 h in data set [3] (100 mg/Kg oral) and in data set [3] (400 mg/Kg oral) were 0% and 60%, respectively.

As to `Cc1ccc(C(=O)Nc2ccc(-n3ccnc3C)cc2)cc1` [Q, 1-[4-(4-Methylbenzoylamino)phenyl]-2-methylimidazole], the minimal effective dose in data set [1] stood at 10 mg/kg. The response vs control in vivo at 40 mg/kg in data set [2] was 447 ± 51%. Besides, the results for the mortality at 24 h in data set [3] (100 mg/Kg oral) and in data set [3] (400 mg/Kg oral) were 0% and 40%, respectively.

With `CCc1nccn1-c1ccc(N)cc1` [F, 1-(4-Aminophenyl)-2-ethylimidazole], the minimal effective dose in data set [1] turned out to be 1.25 mg/kg. The response vs control in vivo at 40 mg/kg in data set [2] amounted to 382 ± 25%. Moreover, the mortality at 24 h in data set [3] (100 mg/Kg oral) is 0%; in data set [3] (400 mg/Kg oral) it was 60%.

As to `CCc1nccn1-c1ccc(NC(=O)c2ccc(Cl)cc2)cc1` [N, 1-[4-(4-Chlorobenzoylamino)phenyl]-2-ethylimidazole], the minimal effective dose in data set [1] was 2.5 mg/kg. For the same molecule, the response vs control in vivo at 40 mg/kg in data set [2] was 207 ± 51%. The mortality at 24 h in data set [3] (100 mg/Kg oral) and in data set [3] (400 mg/Kg oral) was 0% throughout.

`Cc1nccn1-c1ccc(N)cc1Cl` [G, 1-(2-Chloro-4-aminophenyl)-2-methylimidazole] registered a minimal effective dose in data set [1] of 10 mg/kg. Moreover, the response vs control in vivo at 40 mg/kg in data set [2] came to 254 ± 68%. Also, the results for the mortality at 24 h in data set [3] (100 mg/Kg oral) and in data set [3] (400 mg/Kg oral) were 0% and 40%, respectively.

`Cc1nccn1-c1ccc(NC(=O)c2ccc(Cl)cc2)cc1` [L, 1-[4-(4-Chlorobenzoylamino)phenyl]-2-methylimidazole]: the minimal effective dose in data set [1] turned out to be 10 mg/kg. In addition, the response vs control in vivo at 40 mg/kg in data set [2] was 367 ± 30%. For the same molecule, the mortality at 24 h in data set [3] (100 mg/Kg oral) and in data set [3] (400 mg/Kg oral) was 0% each time.

On to `Cc1ccc(-n2ccnc2C)cc1N` [I, 1-(3-Amino-4-methylphenyl)-2-methylimidazole], for which, in data set [1], the minimal effective dose was 5 mg/kg. In addition, in data set [2], the response vs control in vivo at 40 mg/kg worked out at 58 ± 8%. In addition, the results for the mortality at 24 h in data set [3] (100 mg/Kg oral) and in data set [3] (400 mg/Kg oral) were 0% and 20%, respectively. Besides, the “dopamine turnover in the brain” value in data set [5] is reported as “reduce dopamine turnover in the brain”.

`CCc1nccn1-c1ccc(NC(=O)c2ccc(C)cc2)cc1` [O, 1-[4-(4-Methylbenzoylamino)phenyl]-2-ethylimidazole] showed a minimal effective dose in data set [1] of 5 mg/kg. Besides, the response vs control in vivo at 40 mg/kg in data set [2] turned out to be 287 ± 23%. Also, the mortality at 24 h in data set [3] (100 mg/Kg oral) came out at 0%; in data set [3] (400 mg/Kg oral), 20%.
